Laboratory results from patent US12410472B2, “Method for evaluating the eye irritation potential of chemicals” (IMMUNOSEARCH, priority 2016, dated 2025).
Like-named read-outs stand apart in the source and are kept apart here. Marks after values point to notes of the source that are not given here.

How the values were obtained:
[1] = tested on: eye; details: cited from earlier work; for UN GHS: Table 1, list of liquid products studied; for GHS Class: Table 6, list of solid chemicals studied; for eye irritation category as stated in text and figure legends: control chemicals and chemicals of FIG. 1 and FIG. 2
[2] = tested on: reconstructed human corneal epithelium model (SkinEthic™ HCE)
Description: The reconstructed human corneal epithelium model, (SkinEthic™ HCE) was purchased from Episkin in Lyon. The model consists of immortalized human corneal epithelial cells grown in a defined medium at the air-liquid interface. The tissue structure obtained is a multi-layer epithelium similar to the natural tissue structure of the human cornea, comprising 5-7 layers with a surface area of 0.5 cm^2.
Polyhedral cells and wing cells are also present. The tissue also comprises specific ultrastructures such as intermediate filaments, mature hemidesmosomes and desmosomes. […] The tissues are shipped on a semi-solid layer of agarose culture medium. Upon receipt, the tissues are transferred to maintenance medium (1 ml/well) in 6-well plates and incubated in a climatic chamber at 37° C., 5% CO2. The tissues are used 24 hours later.
Liquid products are tested for solubility in phosphate-buffered saline (PBS) or olive oil. In summary, 100 μl of the test product is mixed with 200 μl of PBS or olive oil.
The sample is mixed on a vortex mixer. Turbidity and possible phase separation are assessed by eye. The products are tested pure or diluted to 30%. Products that are not soluble in PBS or olive oil cannot be tested at 30%.
The procedure for applying liquid products to the tissues was optimized as follows: the chemicals are tested at two concentrations, 100% and 30%. In summary, the tissue surface is moistened by adding 20 μl of PBS at 37° C. and incubation for 10 min at 37° C./5% CO2. The corneal epithelia are then treated topically with 50±2 μL of the test product (corresponding to 100 μL/cm2) and incubated for 10 min at room temperature. The tissues are then washed with sterile PBS (2×25 ml) at 37° C. PBS is applied to the edge of the insert (not directly on the tissue) to create a gentle vortex that removes the chemical. The tissues on their inserts are then “embedded” in 5 ml of maintenance medium at room temperature for 30 min in order to remove as much as possible of the product remaining on the tissue surface. The medium is then removed by gently tapping the insert on absorbent paper, and 50 μl of maintenance medium at 37° C. is added. The inserts are then incubated for 6 h at 37° C./5% CO2.
In summary, corneal tissues are recovered with forceps and placed in tubes for rapid freezing in liquid nitrogen. The RNA is then extracted by the QIAzol technique (Qiagen, Courtaboeuf, France) with an “RNeasy Mini Kit” according to the manufacturer's instructions. In summary, the tissues are placed in 1 ml of QIAzol and homogenized using the TissueLyser II (Qiagen, Courtaboeuf, France) with 2 steel beads. After centrifugation, the supernatant is collected and 0.2 ml of bromochloro propane (Sigma, France) is added, then the whole is vigorously mixed. The homogenate is centrifuged at 12,000 g for 15 min at 4° C. The upper phase (aqueous phase) is added to 600 μl of 70% ethanol and immediately mixed by pipetting. The mixture is transferred to an RNeasy spin column placed on a 2 ml collection tube and the RNA is collected according to the manufacturer's instructions (Qiagen, Courtaboeuf, France).
In summary, the transcription of total RNA is performed with 1 μg of total RNA in a final volume of 20 μl using “Random Primers” (Invitrogen, France) and “SuperScript III Reverse Transcriptase” (Invitrogen, France) according to the manufacturer's instructions. Quantitative RT-PCR uses a PCR reagent mix: SYBR Green Real-Time PCR Master Mix (ROCHE, France) with 0.4 μM of each nucleotide primer in a final volume of 25 μl. The reaction is performed in an LC480 System (ROCHE, France). The amplification program comprises a cycle at 95° C. for 1 min, followed by 40 cycles with denaturation at 95° C. for 15 s, a hybridization and amplification phase at 60° C. for 15 s, followed by a final elongation phase at 72° C. for 40 s.

[3] = Table 3, results obtained by the Draize test, liquid products
[4] = liquid products, category from LII at 100% and 30%

Row | Compound | UN-GHS [1, 3] | EIT prediction [2, 4] | further results
1 | CCOC(=O)C(C)C(C)=O (stereo not shown) [Ethyl-2-methylacetoacetate] | Cat 2B |  | EIT prediction ([2]; human, 10 min): Cat 2*
2 | CCN(CC)CCC#N [Diethylaminopropionitrile] | Cat 1 | Cat 1 | UN GHS [1]: Cat 1
3 | C=CCCCCCCC=C [1,9-Decadiene] | No Cat |  | EIT prediction [2]: No Cat
4 | [Na+].[OH-] [Sodium hydroxide 0.3%, Sodium hydroxide] | Cat 2A | Cat 2 | 
5 | C=CCO [Allyl alcohol] | Cat 2A | Cat 2 | 
6 | CCCCCCCC[Si](OC)(OC)OC [Octyltrimethoxysilane (SILAN 108), Octyltrimethoxysilane] | No Cat |  | EIT prediction [2]: No Cat*
7 | C=CC(=O)OCCOCCOCCOCCOC(=O)C=C [Tetraethylene glycol diacrylate] | Cat 1 |  | UN GHS [1]: Cat 1; EIT prediction ([2]; human, 10 min): Cat 2
8 | Oc1cccc2c(O)cccc12 [1,5-Naphthalenediol] |  |  | UN-GHS ([1]; Draize test classification): Cat 2A; GHS Class [1]: Cat 2A; eye irritation category as stated in text and figure legends ([1]; listed as naphthalene dione): Category 2
9 | CC(C)(C)CC(C)(C)c1cc(Cc2cc(C(C)(C)CC(C)(C)C)cc(-n3nc4ccccc4n3)c2O)c(O)c(-n2nc3ccccc3n2)c1 [2,2′-Methylene-bis-(6-(2H-benzotriazol-2-yl)-4-(1,1,3,3-tetramethylbutyl)phenol)] |  |  | GHS Class [1]: No cat; eye irritation category as stated in text and figure legends [1]: No category
10 | O=C(O)Cc1cccc2ccccc12 [1-Naphthalene acetic acid] |  |  | UN-GHS ([1]; Draize test classification): Cat 1; GHS Class [1]: Cat 1
11 | N#CCCCl [3-Chloropropionitrile] | Cat 2B | Cat 2 | 
12 | CCCOCC(C)O (stereo not shown) [Propasol Solvent P] | Cat 2A | Cat 1 | 
13 | CCCC(C)CO (stereo not shown) [2-Methyl-1-pentanol] | Cat 2B |  | eye irritation category as stated in text and figure legends [1]: Category 2; EIT prediction ([2]; human, 10 min): Cat 2
14 | Triton X100 [Triton X100 10%] | Cat 1 | Cat 1 | UN GHS [1]: Cat 1
15 | COC(=O)CS [Methyl thioglycolate] | Cat 1 |  | UN GHS [1]: Cat 1; eye irritation category as stated in text and figure legends [1]: category 1; EIT prediction ([2]; human, 10 min): Cat 1
16 | CCCCCCCCCCCCOS(=O)(=O)[O-].[Na+] [sodium lauryl sulfate (15%), sodium lauryl sulfate] |  |  | eye irritation category as stated in text and figure legends [1]: category 1
17 | benzalkonium chloride [benzalkonium chloride (10%)] |  |  | eye irritation category as stated in text and figure legends [1]: category 1
18 | O=C(Cl)c1c(Cl)cccc1Cl [2,6-Dichlorobenzoyl chloride] | Cat 2A |  | EIT prediction ([2]; human, 10 min): Cat 2
19 | C=C(C)C(=O)OCCOCC [2-Ethoxyethyl methacrylate] | No Cat |  | EIT prediction [2]: No Cat
20 | CCCCCCCCCCCCOS(=O)(=O)[O-].[Na+] [Sodium lauryl sulfate 3%, Sodium lauryl sulfate] |  | No Cat | 
21 | CCCCCCC(C=O)=Cc1ccccc1 [alpha hexyl cinnamaldehyde] |  |  | eye irritation category as stated in text and figure legends [1]: category 2
22 | OCCCCCCCCCl [1-Chloroctan-8-ol] | Cat 1 | Cat 1 | UN GHS [1]: Cat 1

Row | Compound | UN-GHS [1, 3] | EIT prediction [2, 4] | further results
23 | CC(O)CC(C)O (stereo not shown) [2,4-Pentanediol] | No Cat |  | eye irritation category as stated in text and figure legends [1]: No category; EIT prediction [2]: No Cat
24 | CC(O)C(=O)O (stereo not shown) [Lactic acid] | Cat 1 |  | UN GHS [1]: Cat 1; eye irritation category as stated in text and figure legends [1]: category 1; EIT prediction ([2]; human, 10 min): Cat 1
25 | CCCSSCCC [Dipropyl disulfide] | No Cat |  | EIT prediction [2]: No Cat
26 | CC(C)(C)CC(C)(C)c1ccc(OCCOCC[N+](C)(C)Cc2ccccc2)cc1 [Benzethonium chloride 10%, Benzethonium chloride] |  | Cat 1 | 
27 | Triton X100 [Triton X100 5%] | Cat 2A | Cat 2 | 
28 | O=C(O)CO [Glycolic acid (10%), Glycolic acid] | Cat 2B |  | 
29 | CCC(C)=O [Methyl ethyl ketone] |  | Cat 2 | eye irritation category as stated in text and figure legends [1]: category 2
30 | [H]/N=C(\N/C(=N/[H])NCCCCCCNC(=N)NC(=N)Nc1ccc(Cl)cc1)Nc1ccc(Cl)cc1 [Chlorhexidine] | Cat 1 |  | UN GHS [1]: Cat 1; EIT prediction ([2]; human, 10 min): Cat 1
31 | CC(C)=O [Acetone 100%, Acetone] | Cat 2A | Cat 2 | eye irritation category as stated in text and figure legends [1]: category 2
32 | 1-Ethyl-3-methylimidazolium ethylsulfate | No Cat | No Cat* | 
33 | CC(C)C=O [iso-Butanal] | Cat 2B | Cat 2 | 
34 | CO[Si](CCCNCCN)(OC)OC [[3-(2-Aminoethylamino)propyl]trimethoxysilane] | cat 1 |  | UN GHS [1]: Cat 1; EIT prediction ([2]; human, 10 min): Cat 1
35 | Benzalkonium chloride [Benzalkonium chloride 5%] | Cat 1 | Cat 1 | UN GHS [1]: Cat 1
36 | O=C1CCCO1 [Gamma-butyrolactone] | Cat 2A | Cat 2 | 
37 | N=C(NCCCCCCNC(=N)NC(=N)Nc1ccc(Cl)cc1)NC(=N)Nc1ccc(Cl)cc1.O=C(O)[C@H](O)[C@@H](O)[C@H](O)[C@H](O)CO.O=C(O)[C@H](O)[C@@H](O)[C@H](O)[C@H](O)CO [Chlorhexidine gluconate (20%), Chlorhexidine gluconate] | Cat 2A | Cat 2 | 
38 | Triton X100 [Triton X100 1%] | No Cat | No Cat | 
39 | CCCCCCBr [n-Hexyl bromide] | No Cat | No Cat* | 
40 | OCC(O)CO [Glycerol] |  |  | eye irritation category as stated in text and figure legends [1]: No category; EIT prediction [2]: No Cat
41 | CCN(CC)C(=O)c1cccc(C)c1 [Diethyl toluamide] | Cat 2B |  | EIT prediction ([2]; human, 10 min): Cat 2
42 | Triton X-100 [Triton X-100 10%] | Cat 1 | Cat 1 | UN GHS [1]: Cat 1
43 | CCCCCCCCCCCCCCCC[N+](C)(C)C.[Br-] [Hexadecyltrimethylammonium bromide 6%, Hexadecyltrimethylammonium bromide] | Cat 1 |  | UN GHS [1]: Cat 1; EIT prediction ([2]; human, 10 min): Cat 1
